Experimental data published in patent US10782295B2, “Cysteine-reactive ligand discovery in proteomes” (THE SCRIPPS RESEARCH INSTITUTE, priority 2013, dated 2020).

Columns and labels:
[1] = target: T1, MAP2K6 (Homo sapiens, UniProt P52564); test: competitive isoTOP-ABPP, MDA-MB-231 soluble proteome; type: binding; details: 100 μM LDE, 60 min; peptide MC*DFGISGYLVDSVAK
T1 construct: directly in native proteomes; endogenous in cells; host or cells: MDA-MB-231
T1 sequence (P52564 1-334): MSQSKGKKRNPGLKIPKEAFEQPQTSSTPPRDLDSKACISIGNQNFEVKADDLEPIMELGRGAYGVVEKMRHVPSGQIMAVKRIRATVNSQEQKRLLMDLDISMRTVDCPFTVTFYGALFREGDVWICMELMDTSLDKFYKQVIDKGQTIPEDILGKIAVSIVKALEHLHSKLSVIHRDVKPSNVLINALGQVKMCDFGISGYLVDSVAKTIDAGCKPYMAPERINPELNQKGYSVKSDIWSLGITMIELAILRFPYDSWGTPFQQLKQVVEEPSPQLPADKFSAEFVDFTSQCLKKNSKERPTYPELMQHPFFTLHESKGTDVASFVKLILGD
Experimental: (§1) Here, we envisioned that isoTOP-ABPP could be advanced to discover and quantify reactions between cysteines in proteomes and any electrophilic compound. In this advanced, ‘competitive’ version of isoTOP-ABPP (FIG. 1a), a proteome is treated with an electrophile (experimental sample) or DMSO (control sample). Both proteomic samples are then labeled with the IA probe and conjugated by CuAAC to light and heavy azide-biotin tags, respectively. The light and heavy samples are then mixed and subjected to our described isoTOP-ABPP protocol for enrichment, identification, and quantification of IA-labeled cysteines^30. Electrophile-modified cysteines are quantified by measuring the MS1 chromatographic peak ratios (R values) for heavy (DMSO-treated) over light (electrophile-treated) samples, with higher R values reflecting greater sensitivity to the electrophile. In this format, competitive isoTOP-ABPP can assay electrophiles against 1000+ cysteines in parallel directly in native proteomes without requiring any chemical modification to the electrophiles themselves.
(§2) Competitive isoTOP-ABPP experiments were performed in quadruplicate using the soluble proteome of the human breast cancer cell line MDA-MB-231 cell line. Proteomes were treated with 100 μM HNE, 15d-PGJ2, or 2-HD, for 60 minutes, followed by the IA-probe (100 μM, 60 min) A total of ˜1400 cysteine reactivities were quantified across the aggregate data set, with at least 900 cysteine reactivities quantified for each LDE (FIG. 2a) more than 750 of which were quantified for all the three electrophiles.
(§3) HNE was purchased from EMD biosciences, 15d-PGJ2 was purchased from Cayman Chemicals and 2-HD was purchased from Santa Cruz Biotechnology. Proteome samples were diluted to a 4 mg protein/mL solution in PBS. For each profiling experiment, one aliquot of the proteome sample (0.5 mL) was treated with 100 μM of LDE using 5 μL of a 10 mM stock and the other aliquot was treated with 5 μL of either ethanol (for HNE and 15d-PGJ2) or DMSO (for 2-HD) as control. For the concentration-dependent profiling experiments using HNE, aliquots of the proteomes (0.5 mL each) were treated with 5, 10, 50, 100 and 500 μM of HNE using 5 μL of 0.5, 1.0, 5, 10 and 50 mM of stock solution, respectively. After 60 minutes of treatment at room temperature, both the LDE-treated and control aliquots were passed through a NAP-5 Sephadex column (GE healthcare) to remove any unreacted LDE. The volume of each aliquot was increased to 1 mL with the concentration at 2 mg/mL after this step.
(§4) Each of the control and LDE-treated proteome samples (˜2 mg protein/mL in 1 mL volume) was treated with 100 μM of IA-probe using 10 μL of a 10 mM stock in DMSO. The labeling reactions were incubated at room temperature for 1 hour. Click chemistry (acetylene-azide cycloaddition) was performed by the addition of 100 μM of either the Heavy-TEV-Tag (for the control sample) or Light-TEV-Tag (for the LDE-treated sample) (20 μL of a 5 mM stock), 1 mM TCEP (fresh 50× stock in water), 100 μM ligand (17× stock in DMSO:t-Butanol 1:4) and 1 mM CuSO4 (50× stock in water). Samples were allowed to react at room temperature for 1 hour. After the click chemistry step, the light and heavy-labeled samples were mixed together and centrifuged (5900×g, 4 min, 4° C.) to pellet the precipitated proteins.
(§5) The pellets were washed twice in cold MeOH, after which the pellet was solubilized in PBS containing 1.2% SDS via sonication and heating (5 min, 80° C.). Samples were subjected to streptavidin enrichment of probe-labeled proteins, sequential on-bead trypsin and TEV digestion, and liquid chromatography-mass spectrometry (LC-MS) analysis according to the published isoTOP-ABPP protocol^30.
(§6) IA-probe labeled peptides were identified by SEQUEST2 and DTASelect3, and the quantification of heavy/light ratios (isoTOP-ABPP ratios, R) was performed by an in-house software (CIMAGE) as previously described. […]

[2] = target: T2, PSMB8 (Homo sapiens, UniProt P28062); test: as above; type: binding; details: 100 μM LDE, 60 min; peptide LLSNMMC*QYR
T2 construct: directly in native proteomes; endogenous in cells; host or cells: MDA-MB-231
T2 sequence (P28062 73-276): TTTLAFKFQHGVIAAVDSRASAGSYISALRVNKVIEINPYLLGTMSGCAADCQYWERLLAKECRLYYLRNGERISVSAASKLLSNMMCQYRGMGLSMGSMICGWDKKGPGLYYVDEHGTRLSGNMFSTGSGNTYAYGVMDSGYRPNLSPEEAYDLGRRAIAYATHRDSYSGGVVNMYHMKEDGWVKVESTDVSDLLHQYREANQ
Experimental: as §1, §2, §3, §4, §5, §6

SMILES	R value (isoTOP-ABPP ratio heavy/light) for IA-labeled cysteine of MAP2K6 [1]	R value (isoTOP-ABPP ratio heavy/light) for IA-labeled cysteine of PSMB8 [2]
CCCCCC(O)/C=C/C=O (stereo not drawn) [4-HNE, 4-Hydroxynonenal]	1.9	1.19
CCCCCCCCCCCCC/C=C/C=O [2-HD, 2-trans-hexadecenal]	1.15	1.05
CCCCC/C=C/C=C1/C(=O)C=C[C@@H]1C/C=C\CCCC(=O)O [PGJ2, 15-deoxy-Δ12,14-prostaglandin J2]	7.43	5.86
